Measured values: US11725217B2, “Methods to enhance myocardial regeneration and/or repair” (Regents of the University of Minnesota, priority 2018, dated 2023)
Where a SMILES comes first, the peptide text is derived from it. The star is where a group is joined. Cbz = O=C(OCc1ccccc1)*; CH2F = FC*

Experiments:
[1] = tested on: isolated mouse neonatal cardiomyocytes; assay: Proliferation of cultured neonatal (P1) cardiomyocytes (cell number, EdU incorporation, Ki67, FACS); assay type: cell-based; details: for Ki67+-Actinin+ cells: versus DMSO control; for EdU+ cardiomyocytes: pan-caspase inhibition experiment, 48 h, SAG with/without pan-caspase inhibition
Method: Immunohistochemistry was performed on cryosections (10 μm thick) using standard procedures (Singh et al., 2012; Singh et al. 2007; Adhikari et al., 2011; Singh et al., 2010). Briefly, sections were rehydrated, permeabilized and blocked with 10% normal donkey serum (NDS), 0.1% Triton X-100 in PBS at room temperature and incubated overnight at 4° C. with primary antibodies: α-actinin (Abeam; 1:300), desmin (Novus biologicals; 1:300), Shh (Santa Cruz Biotechnology; 1:200), endomucin (Abeam; 1:100), SM22 (Abeam; 1:400), α-phospho-Histone H3 (Ser10) (Millipore; 1:100), Ki67 (Abcam; 1:200), PCNA (Santa Cruz Biotechnology; 1:100), Mef2a (Santa Cruz Biotechnology; 1:100), Smoothened (Abcam; 1:200), Nkx 2-5 (Santa Cruz Biotechnology; 1:100) and GFP (ThermoFisher Scientific; 1:300) sera. Sections were rinsed and incubated with combinations of secondary antibodies (1:400) including Alexa 488, Alexa 594, Cy3 and Cy5 (Jackson ImmunoResearch Laboratories). EdU staining was performed using the EdU labeling kit (Life Technologies)
Ventricular cardiomyocytes were isolated using previously published protocols (Collesi et al. 2008). Briefly, ventricles were dissected from P1 pups, minced in CBFHH (calcium and bicarbonate-free Hanks with Hepes) buffer. Subsequently, the minced ventricles were digested in CBFHH buffer containing 1.75 mg/ml of trypsin and 20 μg/ml of DNaseII (Sigma-Aldrich). Cells were preplated for 1 h (3 times) onto 100-mm primaria (Corning Life Sciences) dishes in culture medium containing 10% serum to remove fibroblasts. Unattached cardiomyocytes were plated at a desired density. […] After 12 h, the culture medium was changed and cells were subjected to the different treatments (SAG; 4 μg/mL and CyA; 5 μg/ml) and analyzed. For apoptotic pathway inhibition, neonatal cardiomyocytes were treated with cell permeable small molecule inhibitor (Z-VAD-FMK; R&D Systems) with or with SAG. For the EdU incorporation assay, cardiomyocytes were incubated with 20 μM EdU for 48 h and fixed using 4% PFA for 10 min at room temperature. […] For qPCR and FACS analysis, cells were harvested using trypsin and processed for further analysis. […] For the EdU incorporation assay, cardiomyocytes were incubated with 20 μM EdU for 48 h and fixed using 4% PFA for 10 min at room temperature.

[2] = tested on: regenerating newt heart; details: continuous blockade of HH signals, CyA 2 μg/mL in aquarium water daily; n=8, p<0.05
Method: Adult red-spotted newts, Notophthalmus viridescens, were housed as described in Singh et al. (2012). For heart resection surgery, adult newts were anesthetized in 0.1% MS-222 solution for 10 min. Each newt was placed in a supine position under a stereomicroscope. The outer skin was wiped using 70% ethanol-chlorhexidine solution and the pericardial sac was opened to expose the heart. The apex of the ventricle was resected (˜25-30%) using iricdectomy scissors. Following resection, the blood flow was controlled by the formation of the blood clot. The resected heart was maneuvered carefully into the pericardial sac and sutured using 8.0 ethilon monofilament sutures. Following resection surgery, newts were allowed to recover in an isolated tank containing sulfmerazine antibiotic solution and later placed in their designated aquariums. The resected ventricular mass was measured using a Sartorius weighing balance. […] CyA-mediated inhibition of HH signaling was achieved by daily treatment of the resected newts at 2 μg/mL diluted in the aquarium water. At specified time periods, animals were sacrificed and tissues were collected for further processing. For EdU labelling, the resected newts were injected intraperitoneally (i.p.) with 100 μg/gm of EdU for a 7 day period prior to sacrifice and harvested for immunohistochemical analysis. […]

[3] = tested on: HH signaling; assay: qPCR of HH pathway and cell cycle transcripts in neonatal cardiomyocytes; assay type: cell-based, mouse; details: for Gli1 expression (qPCR) / Gli3 expression (qPCR) / Mycn transcripts (qPCR): isolated mouse neonatal cardiomyocytes
Method: (§1) RNA isolation and qPCR analysis from newt tissue was performed as previously described^5. For chamber based qPCR analysis, the regenerating heart including BA, AT and ventricle was harvested and rinsed in PBS to remove blood cells. Subsequently, the BA, AT and ventricle were collected from heart tissue (n=12) for further processing. RNA isolation from cultured cardiomyocytes was performed using a standard protocol as per the manufacturer's instructions. Total RNA was isolated using the miRVANA kit (Ambion) and cDNA was made using SuperScript […] kit (Invitrogen).
Briefly, ventricles were dissected from P1 pups, minced in CBFHH (calcium and bicarbonate-free Hanks with Hepes) buffer. […] Cells were preplated for 1 h (3 times) onto 100-mm primaria (Corning Life Sciences) dishes in culture medium containing 10% serum to remove fibroblasts. Unattached cardiomyocytes were plated at a desired density. […] For apoptotic pathway inhibition, neonatal cardiomyocytes were treated with cell permeable small molecule inhibitor (Z-VAD-FMK; R&D Systems) with or with SAG. For the EdU incorporation assay, cardiomyocytes were incubated with 20 μM EdU for 48 h and fixed using 4% PFA for 10 min at room temperature. […] For qPCR and FACS analysis, cells were harvested using trypsin and processed for further analysis. For the time-lapse microscopic experiments, isolated P7 mCherry+ cardiomyocytes were plated on glass-bottom petri dish coated with fibronectin. After 2 h of attachment, media was changed containing DMSO or SAG and the petri dish was placed in the environmental chamber for imaging. […] Briefly, the adult heart tissue was dissociated by perfusion of a collagenase type 2 enzyme solution. Isolated cardiomyocytes were cultured in 1% serum media in the presence of DMSO or SAG. For the EdU incorporation assay, cardiomyocytes were incubated with 20 μM EdU for 48 h and fixed using 4% PFA for 10 min at room temperature.

[4] = tested on: P7 cardiomyocytes; assay: Proliferation of isolated P7 cardiomyocytes (EdU incorporation, time-lapse microscopy); assay type: cell-based, mouse
Method: Ventricular cardiomyocytes were isolated using previously published protocols (Collesi et al. 2008). Briefly, ventricles were dissected from P1 pups, minced in CBFHH (calcium and bicarbonate-free Hanks with Hepes) buffer. Subsequently, the minced ventricles were digested in CBFHH buffer containing 1.75 mg/ml of trypsin and 20 μg/ml of DNaseII (Sigma-Aldrich). Cells were preplated for 1 h (3 times) onto 100-mm primaria (Corning Life Sciences) dishes in culture medium containing 10% serum to remove fibroblasts. Unattached cardiomyocytes were plated at a desired density. Using this protocol, we routinely obtained >85-90% cardiomyocytes (confirmed using immunohistochemical techniques and an alpha-actinin antibody). […] For apoptotic pathway inhibition, neonatal cardiomyocytes were treated with cell permeable small molecule inhibitor (Z-VAD-FMK; R&D Systems) with or with SAG. For the EdU incorporation assay, cardiomyocytes were incubated with 20 μM EdU for 48 h and fixed using 4% PFA for 10 min at room temperature. P7 cardiomyocytes were isolated using a similar protocol as that of the P1 cardiomyocyte isolation protocol with modifications including the perfusion based tissue digestion using collagenase type-2 enzyme solution. >95% rod-shaped binucleated cardiomyocytes were routinely obtained using this protocol. For qPCR and FACS analysis, cells were harvested using trypsin and processed for further analysis. For the time-lapse microscopic experiments, isolated P7 mCherry+ cardiomyocytes were plated on glass-bottom petri dish coated with fibronectin. After 2 h of attachment, media was changed containing DMSO or SAG and the petri dish was placed in the environmental chamber for imaging. Adult cardiomyocyte isolation was performed (Mahmoud et al., 2013). Briefly, the adult heart tissue was dissociated by perfusion of a collagenase type 2 enzyme solution. Isolated cardiomyocytes were cultured in 1% serum media in the presence of DMSO or SAG. For the EdU incorporation assay, cardiomyocytes were incubated with 20 μM EdU for 48 h and fixed using 4% PFA for 10 min at room temperature.

[5] = tested on: isolated mouse neonatal cardiomyocytes; assay: Live/dead assay in cultured neonatal cardiomyocytes; assay type: cell-based; details: 48 h; n=3
Method: (§2) Ventricular cardiomyocytes were isolated using previously published protocols (Collesi et al. 2008). Briefly, ventricles were dissected from P1 pups, minced in CBFHH (calcium and bicarbonate-free Hanks with Hepes) buffer. Subsequently, the minced ventricles were digested in CBFHH buffer containing 1.75 mg/ml of trypsin and 20 μg/ml of DNaseII (Sigma-Aldrich). Cells were preplated for 1 h (3 times) onto 100-mm primaria (Corning Life Sciences) dishes in culture medium containing 10% serum to remove fibroblasts. Unattached cardiomyocytes were plated at a desired density. Using this protocol, we routinely obtained >85-90% cardiomyocytes (confirmed using immunohistochemical techniques and an alpha-actinin antibody). […] For apoptotic pathway inhibition, neonatal cardiomyocytes were treated with cell permeable small molecule inhibitor (Z-VAD-FMK; R&D Systems) with or with SAG. For the EdU incorporation assay, cardiomyocytes were incubated with 20 μM EdU for 48 h and fixed using 4% PFA for 10 min at room temperature. P7 cardiomyocytes were isolated using a similar protocol as that of the P1 cardiomyocyte isolation protocol with modifications including the perfusion based tissue digestion using collagenase type-2 enzyme solution. >95% rod-shaped binucleated cardiomyocytes were routinely obtained using this protocol. […]

[6] = tested on: adult mouse cardiomyocytes; assay: EdU incorporation in isolated adult cardiomyocytes; assay type: cell-based; details: n=3, p<0.05
Method: as §2

[7] = tested on: HH signaling; assay: qPCR in P7 cardiomyocytes; assay type: cell-based, mouse; details: P7-isolated cardiomyocytes
Method: as §1
Ventricular cardiomyocytes were isolated using previously published protocols (Collesi et al. 2008). Briefly, ventricles were dissected from P1 pups, minced in CBFHH (calcium and bicarbonate-free Hanks with Hepes) buffer. Subsequently, the minced ventricles were digested in CBFHH buffer containing 1.75 mg/ml of trypsin and 20 μg/ml of DNaseII (Sigma-Aldrich). Cells were preplated for 1 h (3 times) onto 100-mm primaria (Corning Life Sciences) dishes in culture medium containing 10% serum to remove fibroblasts. Unattached cardiomyocytes were plated at a desired density. Using this protocol, we routinely obtained >85-90% cardiomyocytes (confirmed using immunohistochemical techniques and an alpha-actinin antibody). […]

[8] = tested on: day-60 hiPSC-CMs; assay: Proliferation of day-60 hiPSC-derived cardiomyocytes (EdU, Ki67); assay type: cell-based, human; details: 48 h, n=3, p<0.01
Method: The media was then changed with RPMI/B27 minus insulin and BMP4 and FGF from d1-d2. On d3, the medium was changed with RPMI/B27 minus insulin and IWP-4. The differentiated cells were maintained in RPMI/B27 with insulin media from d5-d60. […] Immunohistochemical analysis was performed as described previously.

## CC1=C2C[C@H]3[C@@H](CC=C4C[C@@H](O)CC[C@@]43C)[C@@H]2CC[C@]12O[C@@H]1C[C@H](C)CN[C@H]1[C@H]2C [CyA, Cyclopamine]
[1]; n=3
  Ki67+-Actinin+ cells: not detected
[2]
  heart regeneration following injury: complete ablation of heart regeneration and induction of scar formation
[3]
  Gli1 expression (qPCR): reduced
  Gli3 expression (qPCR): increased
  Mycn transcripts (qPCR): reduced expression

## c1ccc2c(Oc3nc(Nc4ccc(N5CCOCC5)cc4)c4ncn(C5CCCCC5)c4n3)cccc2c1 [Purmorphamine]
[1]; isolated neonatal cardiomyocytes pulsed with EdU, FIG. 20
  cardiomyocyte proliferation (Actinin+-EdU+, immunohistochemical images): promotes cardiomyocyte proliferation

## CNC1CCC(N(Cc2cccc(-c3ccncc3)c2)C(=O)c2sc3ccccc3c2Cl)CC1 (stereo not drawn) [SAG]
[4]; P7 cardiomyocytes, n=4
  α-Actinin+-EdU+ cardiomyocytes: increased number
[4]; P7 cardiomyocytes, n=4, p<0.05
  increase in number of mono-, bi-, and multi-nucleated cardiomyocytes: ~3 fold
[4]; none found in DMSO control
  dividing αMHC-mCherry+ P7 cardiomyocytes (time-lapse microscopy): multiple dividing
[5]
  live/dead assay versus control: No difference
[1]; SAG 4 μg/mL, EdU 48 h, n=4, p<0.05
  increase in α-Actinin+-EdU+ cells compared to controls: 2.5 fold
[1]; n=3, p<0.05
  increased cardiomyocyte proliferation, FACS analysis of α-Actinin+-EdU+ population: 2.5 fold
[1]; n=3
  EdU+ cardiomyocytes: comparable increase
  Ki67+-Actinin+ cells: increased number
[1]; serum-free conditions, n=3, p<0.05
  cardiomyocyte proliferation (α-Actinin+-EdU+): increased cardiomyocyte proliferation
[1]; various concentrations
  number of cultured neonatal cardiomyocytes: dose-dependent increase
[3]; HH signaling activation
  Ptc1, Ccnd2, Ccnd1 and Ccne1 transcripts (qPCR): induction of cell cycle kinetics
[3]
  Gli1 expression (qPCR): induced
  Gli3 expression (qPCR): reduced
  Mycn transcripts (qPCR): increased
[3]; versus control, data not shown
  levels of caspase-3 transcripts (qPCR): unaltered
[6]
  α-Actinin+-EdU+ cardiomyocytes: increased number
[7]
  expression of Cdkn1b (p27) (qPCR): reduced expression
  expression of Ptc1, Ccne1 and Ccnd2 (qPCR): increased expression
[8]
  increased α-Actinin+-EdU+ cardiomyocytes: 2 fold
  increased α-Actinin+-Ki67+ cardiomyocytes: ~3 fold

## COC(=O)C[C@H](NC(=O)[C@H](C)NC(=O)[C@@H](NC(=O)OCc1ccccc1)C(C)C)C(=O)CF [pan-caspase inhibitor, Z-VAD-FMK] (Cbz-Val-Ala-Asp(OMe)-CH2F)
[1]; n=3
  EdU+ cardiomyocytes: did not result in any change
